{"source": "patent US8093286B2", "about": "“Methods for treatment with bucindolol based on genetic targeting” (The Regents of the University of Colorado, a body corporate, priority 2004, dated 2012)", "key": {"[1]": {"system": "failing human right ventricular trabeculae", "assay": "contractile response of isolated right ventricular trabeculae from failing human hearts", "settings": "for maximal isoproterenol-stimulated systolic tension: failing hearts", "method": "(§1) Nonfailing hearts were obtained from local potential organ donors whose hearts were not transplanted because of physical or ABO blood type incompatibility. Failing hearts were from patients with end-stage heart failure due to ischemic or non-ischemic dilated cardiomyopathies who underwent cardiac transplantation. The demographic characteristics of the hearts are provided in Results. The contractile response of isolated, field stimulated, human trabeculae was assessed as previously described {1755; a-c}. Trabeculae of uniform size (1 to 2×6 to 8 mm) were mounted in 80 ml muscle bath chambers in Tyrode's solution at pH 7.45 bubbled with 95% O2-5% CO2 at 36^0. After equilibration, a tension of 75% of Lmax was applied to each individual trabeculum. Field-stimulation by a 5-ms pulse at 10% above threshold was then applied, and after equilibration full dose-response curves to isoproterenol, bucindolol or xamoterol were performed using the indicated concentrations and application of increasing doses every 5 minutes. In experiments in which forskolin was used to enhance signal transduction {e,f}, 10^−6 M of this adenylyl cyclase activator was applied to the tissue baths 15-20 minutes prior to the performance of dose-response curves, and allowed to achieve stability of tension response. Systolic tension at each dose was calculated as the stimulated tension in mN/mm^2 minus baseline tension. The maximum tension, concentration of isoproterenol that produced 50% of the maximum developed tension (EC50) and curve slope were computed by nonlinear repeated measures analysis of covariance. […] Statistical methods were employed as described in Examples 3 and 4."}, "[2]": {"system": "nonfailing human right ventricular trabeculae", "assay": "contractile response of isolated right ventricular trabeculae from nonfailing human hearts", "method": "as §1"}, "norepinephrine": {"system": "norepinephrine", "settings": "3 months, MOXCON Trial; cited from earlier work"}, "[3]": {"system": "β1-Arg389 transgenic mice (ventricular expression of human β1AR)", "assay": "chronic β-blockade in transgenic mice, Western blots of ventricular signaling and Ca2+-handling proteins", "assay_type": "in vivo, mouse", "settings": "0.5 mg/ml in drinking water for 6 months; ANOVA P<0.002", "method": "(§2) Using the α-myosin heavy chain promoter, transgenic mice with targeted ventricular expression of the human β1AR (Arg389 or Gly389 forms) were utilized to ascertain allele-specific responses to chronic administration of the […] propranolol. […] The generation of these mice and their partial characterization has recently been reported in detail elsewhere (Perez et al, 2003). For the current studies, 3-month-old mice of both genotypes, as well as nontransgenic mice, were treated with propranolol (0.5 mg/ml) in their drinking water, or water without propranolol (control) continuously for 6 months. Hearts were then removed and ventricular protein extracts prepared. These were subjected to Western blotting to ascertain expression of the following proteins using methods previously described (Perez et al., 2003): Gαs, Gαi2, G-protein coupled receptor kinase-2 (GRK2), adenylyl cyclase type 5 (AC5), total phospholamban (T-PLN), phosphorylated phospholamban (P-PLN) and sarcoplasmic endoplasmic reticulum calcium ATPase-2A (SERCA). Treatment effect was assessed by comparing expression of the proteins of untreated and propranolol treated mice, within genotype, by ANOVA. The study was approved by the University of Cincinnati Animal Use and Care Committee."}, "[4]": {"system": "β1-Gly389 transgenic mice (ventricular expression of human β1AR)", "assay": "chronic β-blockade in transgenic mice, Western blots of ventricular signaling and Ca2+-handling proteins", "assay_type": "in vivo, mouse", "settings": "0.5 mg/ml in drinking water for 6 months; P=0.67", "method": "as §2"}, "heart failure patients": {"system": "heart failure patients", "settings": "cited from earlier work"}, "[5]": {"settings": "U.S. enrolled patients in MERIT-HF"}}, "note": "Entries after “also recorded” stand apart in the source; their conditions may differ.", "data": [{"smiles": "COc1ccccc1OCCNCC(O)COc1cccc2[nH]c3ccccc3c12", "note": "(stereo not drawn) [carvedilol]", "values": [{"measurement": "positive inotropic signal compared with bucindolol", "setting": "[1]; failing heart, forskolin pretreated preparations", "result": "more of a positive inotropic signal than bucindolol"}]}, {"smiles": "O=C(NCCNCC(O)COc1ccc(O)cc1)N1CCOCC1", "note": "(stereo not drawn) [xamoterol]", "values": [{"measurement": "inotropic effect on systolic force (dose-response curve slope)", "setting": "[1]; β1AR Arg/Arg, forskolin pretreatment", "result": "increase in force"}, {"measurement": "inotropic effect on systolic force (dose-response curve slope)", "setting": "[1]; β1AR Arg/Arg, forskolin pretreatment, listed as Xamoterol", "result": "positive inotropic effect"}, {"measurement": "inotropic effect on systolic force (dose-response curve slope)", "setting": "[1]; β1AR Arg/Arg, without forskolin", "result": "increase in force; also recorded: positive inotropic effect"}, {"measurement": "inotropic effect on systolic force (dose-response curve slope)", "setting": "[1]; β1AR Gly carriers, forskolin pretreatment", "result": "increase in force"}, {"measurement": "inotropic effect on systolic force (dose-response curve slope)", "setting": "[1]; β1AR Gly carriers, forskolin pretreatment, listed as Xamoterol", "result": "positive inotropic effect"}, {"measurement": "inotropic effect on systolic force (dose-response curve slope)", "setting": "[1]; β1AR Gly carriers, without forskolin", "result": "negative inotropic effect"}]}, {"smiles": "CC(C)NCC(O)c1ccc(O)c(O)c1", "note": "(stereo not drawn) [isoproterenol]", "values": [{"measurement": "maximal isoproterenol-stimulated systolic tension", "setting": "[2]; β1-Arg389 homozygotes", "result": "13±2.5", "unit": "mN/mm^2"}, {"measurement": "maximal isoproterenol-stimulated systolic tension", "setting": "[2]; β1-Gly389 carriers", "result": "5.2±1.4", "unit": "mN/mm^2"}, {"measurement": "maximal isoproterenol-stimulated systolic tension", "setting": "[1]; β1-Arg389 homozygotes", "result": "9.4±1.9", "unit": "mN/mm^2"}, {"measurement": "maximal isoproterenol-stimulated systolic tension", "setting": "[1]; β1-Gly389 carriers", "result": "2.4±0.60", "unit": "mN/mm^2"}]}, {"smiles": "COc1nc(C)nc(Cl)c1N=C1NCCN1", "note": "[moxonidine]", "values": [{"measurement": "relative reduction in norepinephrine", "setting": "norepinephrine", "result": 24, "unit": "%"}]}, {"smiles": "CC(C)NCC(O)COc1cccc2ccccc12", "note": "(stereo not drawn) [propranolol]", "values": [{"measurement": "treatment effect on expression of cardiac signaling and Ca2+-handling proteins", "setting": "[3]", "result": "overall treatment response"}, {"measurement": "treatment effect on expression of cardiac signaling and Ca2+-handling proteins", "setting": "[4]", "result": "no effect"}]}, {"smiles": "COCCc1ccc(OCC(O)CNC(C)C)cc1.COCCc1ccc(OCC(O)CNC(C)C)cc1.O=C(O)CCC(=O)O", "note": "(stereo not drawn) [metoprolol CR/XL, metoprolol succinate CR/XL]", "values": [{"measurement": "Mortality + HF Hospitalization hazard ratio vs placebo", "setting": "heart failure patients; MERIT-HF US Pts (n = 1071/3991)", "result": "~0.84; 200 Ev"}, {"measurement": "mortality plus heart failure hospitalization hazard ratio vs placebo", "setting": "heart failure patients; MERIT-HF entire cohort (UCL 0.80)", "result": 0.69}, {"measurement": "mortality increase", "setting": "heart failure patients; [5]", "result": 5, "unit": "%"}, {"measurement": "mortality+HF hospitalization decrease", "setting": "heart failure patients; [5]", "result": 16, "unit": "%"}]}]}
